According to patent US10272117B2, “Methods of using an activator of cereblon for neural cell expansion and the treatment of central nervous system disorders” (Celgene Corporation, priority 2014, dated 2019):

System: zebrafish embryos
Experiment: Quantitative PCR of gene expression in zebrafish embryos
Format: in vivo
Method: BRD7-knockdown zebrafish embryos show similar phenotypes as CRBN-overexpressing zebrafish embryos. For example, expression of HuC in untreated, CRBN-overexpressing, and BRD7-knockdown zebrafish embryos was compared by quantitative PCR. Quantitative PCR was performed as follows: 1.7 μg of random […] and oligo-dT primed cDNA synthesized by ReverTra Ace qPCR RT Kit (TOYOBO, Japan) (as template) were used for reverse transcription by THUNDERBIRD™ SYBR® qPCR Mix (Toyobo, Japan). 0.25 mM of each forward and reverse primers were used in the reaction, wherein the sequence of the forward primer was 5′-[…]-3′ (SEQ ID NO: 9); and the sequence of the reverse primer was 5′-[…]-3′ (SEQ ID NO: 10).
Expression of Pou5f1 (Oct3/4), c-Myc, Sox2, and Nanog in zebrafish embryos was analyzed by quantitative PCR. Quantitative RT (qRT)-PCR was performed as follows: 1.7 μg of random hexamer and oligo-dT primed cDNA synthesized by ReverTra Ace qPCR RT Kit (TOYOBO, Japan) (as template) were used for reverse transcription by THUNDERBIRD™ SYBR® qPCR Mix (Toyobo, Japan). 0.25 mM of each forward and reverse primers was used in the reaction. The sequences of primers for c-Myc are as follows: forward primer is 5′-[…]-3′ (SEQ ID NO: 15), and reverse primer is 5′-GTAAAACGACGGCCAGT-3′ (SEQ ID NO: 16). The sequences of primers for sox2 are as follows: forward primer is 5′-ACCCCGGAGGAAAACCAA-3′ (SEQ ID NO: 17), and reverse primer is 5′-CCCGGCAGGGTGTACTTG-3′ (SEQ ID NO: 18). The sequences of primers for nanog are as follows: forward primer is 5′-TACCCAACACACCAGCTTC-3′ (SEQ ID NO: 19), and reverse primer is 5′-GAAGGGTGTTTTTGGAGGA-3′ (SEQ ID NO: 20).
Expression of a pool of three genes, Ascl1, Brn2 (Pou3f2), and Myt1la, is sufficient to directly reprogram embryonic and postnatal fibroblasts into functional neurons. See, e.g., Vierbuchen and Wernig, Nat Biotechnol. 29:892-907 […]. […] Primer sequences for amplification for Ascl1a are as follows: forward primer is 5′-ACGAGCATGACGCCGTA-3′ (SEQ ID NO: 21), and reverse primer is 5′-[…]-3′ (SEQ ID NO: 22). Primer sequences for amplification for Pou3f2b are as follows: forward primer is 5′-[…]-3′ (SEQ ID NO: 23), and reverse primer is 5′-[…]-3′(SEQ ID NO: 24). Primer sequences for amplification for Myt1la are as follows: forward primer is 5′-[…]-3′ (SEQ ID NO: 25), and reverse primer is 5′-[…]-3′ (SEQ ID NO: 26). FIG. […]
Notch3 and Neuropilin2b (Nrp2b) are required for cell proliferation progression. Notch3 regulates the timing of neural differentiation from undifferentiated or immature cells, and Nrp2b regulates cell proliferation and remodeling in mesenchymal stem cells by cooperating with PDGF (platelet-derived growth factor). Therefore, expression of Notch3 and Neuropilin 2b (Nrp2b) was analyzed in untreated and CRBN-overexpressing zebrafish embryos by quantitative PCR. The primers used for Notch3 are as follows: the sequence for forward primer is 5′-[…]-3′ (SEQ ID NO: 27), and the sequence for reverse primer is 5′-[…]-3′ (SEQ ID NO: 28). The primers used for Nrp2b are as follows: the sequence of forward primer is 5′-[…]-3′ (SEQ ID NO: 29), and the sequence of reverse primer is 5′-[…]-3′ (SEQ ID NO: 30). FIG. 29A is a histogram showing the mRNA level of Notch3 and Nrp2b in untreated, CRBN-overexpressing, and thalidomide-treated zebrafish embryos at 11 hpf by quantitative PCR. As shown, expression of Notch3 in the CRBN-overexpressing embryos increased to 1.8-fold of the level in the untreated embryos at 11 hpf, and expression of Nrp2b in the CRBN-overexpressing embryos increased to 2.7-fold of the level in the untreated embryos at the same stage.
Elval3 (Huc) is a neural progenitor marker. Expression of Elavl3 (Huc) was also analyzed by quantitative PCR and in situ hybridization. […]

[1] = 11 hpf, compared to untreated embryos

| Substance | expression of Ascl1a (change) (23 hpf) | expression of Pou3f2b (change) (23 hpf) | expression of Ascl1 (change) (28 hpf) | expression of Myt1la (change) (28 hpf) | expression of Nanog (change) (28 hpf) | expression of Pou3f2b (change) (28 hpf) | expression of Pou3f3a (change) (28 hpf) | expression of Sox2 (change) (28 hpf) | expression of c-Myc (change) (28 hpf) | expression of Ascl1 (change) (11 hpf) | expression of Brn2 (Pou3f2b) (change) (11 hpf) | expression of Myt1l (change) (11 hpf) | expression of Nanog (change) (11 hpf, FIG. 13) | expression of Pou5f1 (change) (11 hpf, FIG. 13) | expression of Zic3 (change) (11 hpf, FIG. 13) | HuC (Elavl3) expression level (11 hpf, fold of level in untreated embryos) | Nanog expression [1] | Pou5f1 expression [1] | Sox2 expression [1] | Zic3 expression [1] |
| --- | --- | --- | --- | --- | --- | --- | --- | --- | --- | --- | --- | --- | --- | --- | --- | --- | --- | --- | --- | --- |
| 5′-TTCCTGTGCCTCCTCAGTCTCCATC-3′ (all phosphorodiamidate morpholino (PMO)) [Ikaros-knockdown, 25-mer antisense morpholino oligonucleotide (AMO) used for the Ikaros gene knockdown] | increased | increased | increased | increased | activated | increased | increased | activated | activated |  |  |  |  |  |  |  |  |  |  |  |
| 5′-TGTGTTTCTTGTGCTTTTTGCCCAT-3′ (all phosphorodiamidate morpholino (PMO)) [BRD7-knockdown, 25-mer antisense morpholino oligonucleotide (AMO) used for the BRD7 gene knockdown] |  |  | increased | increased |  |  | increased |  |  | increased | increased | increased | increased | significantly increased | increased | 1.7 fold |  |  |  |  |
| 5′-AGAGCTGTAGCTGGTTCCCCATTTC-3′ (all phosphorodiamidate morpholino (PMO)) [CRBN-knockdown, 25-mer antisense morpholino oligonucleotide (AMO) used for the CRBN gene knockdown, reference compound] | decreased | decreased |  |  |  |  |  |  |  |  |  |  | decreased | decreased | decreased |  | 0.8 fold | 0.8 fold | 0.7 fold | 0.8 fold |
